Source: US9427468B2, “Compositions and methods for diagnosing and treating community-acquired methicillin-resistant Staphylococcus aureus” (priority 2007, dated 2016)
Converted amounts (≈) assume the structure as drawn.

What was measured:
MRSA252 HA-MRSA = test: MIC and synergy assay; format: cell-based, Staphylococcus aureus; details: for combination: MIC of oxacillin with ¼ MIC cefoxitin
Protocol: (§1) Minimum inhibitory concentrations and minimum bactericidal concentrations (MIC and MBC, respectively) were determined for each isolate in triplicate by microdilution techniques with an inoculum of 5×10^5 CFU/ml according to the Clinical and Laboratory Standards Institute guidelines. Aliquots (5 μl) from clear wells were plated onto TSA drug-free plates for the determination of MBCs, followed by incubation at 37° C. for 24 and 48 hours. For the mutant strains, each one of the three clones was tested. MIC data were reported as median values from at least three independent experiments for each antibiotic. Also, strains containing pEPSA5-based plasmids were tested with and without xylose induction, but chloramphenicol was not added to avoid interference with beta-lactam resistance evaluation. […] The correct inocula were confirmed by plating serial dilutions on agar.

MW2 Δpbp4 = test: MIC by microdilution (CLSI); format: cell-based, Staphylococcus aureus
From the text: (§2) The present invention was described based on a series of experiments examining the biological basis for CA-MRSA strains versus HA-MRSA strains, focusing on the role of PBPs in CA-MRSA and generally in β-lactam resistance. Experiments were first performed using mutants of various PBPs. In-frame deletion mutants of the genes encoding PBP3 (MW1504) and PBP4 (MW0604), pbp3 and pbp4 respectively, were generated in the CA-MRSA strain MW2 and in HA-MRSA strain COL using the temperature-sensitive allelic replacement vector pMAD (Arnaud, M. et al. 2004. Appl. Environ. Microbiol. 70:6887-6891). PBP4 was also deleted in the HA-MRSA strains Mu50 and N315 and in the CA-MRSA strain USA300. […] Minimum inhibitory concentrations (MICs) were determined according to the Clinical and Laboratory Standards Institute and are a standard method for defining antibiotic efficacy against different organisms. Bacteria, grown to an OD650=1, were added to cation-supplemented Mueller Hinton broth (CSMHB) to achieve a final concentration of 5×10^5 CFU/ml.
as §1

MW2 Δpbp3/4 = test: MIC by microdilution (CLSI); format: cell-based, Staphylococcus aureus; details: Table 1, MW2 Δpbp3/4
From the text: as §2, §1

MW2 Δpbp4::pbp4 = test: MIC by microdilution (CLSI); format: cell-based, Staphylococcus aureus; details: Table 1; MW2 Δpbp4::pbp4 (complemented)
From the text: as §2, §1

USA300 Δpbp4::pbp4 = test: MIC by microdilution (CLSI); format: cell-based, Staphylococcus aureus; details: Table 1; USA300 Δpbp4::pbp4 (complemented)
From the text: as §2, §1

USA300 Δpbp4 = test: MIC by microdilution (CLSI); format: cell-based, Staphylococcus aureus
From the text: as §2, §1

MW2 Δpbp3 = test: MIC by microdilution (CLSI); format: cell-based, Staphylococcus aureus; details: Table 1; MW2 Δpbp3
From the text: as §2, §1

PBP4 = details: cited from earlier work
[1] = system: MW2 ex (MW2 cured of plasmid pMW2); test: MIC by microdilution (CLSI); format: cell-based; details: Staphylococcus aureus, Table 1
From the text: as §2, with “Experiments” for “The present invention was described based on a series of experiments examining the biological basis for CA-MRSA strains versus HA-MRSA strains, focusing on the role of PBPs in CA-MRSA and generally in β-lactam resistance. Experiments”
as §1

MW2 ex Δpbp3 = test: MIC by microdilution (CLSI); format: cell-based; details: Staphylococcus aureus, read-out: MICs
From the text: as §2, with “Experiments” for “The present invention was described based on a series of experiments examining the biological basis for CA-MRSA strains versus HA-MRSA strains, focusing on the role of PBPs in CA-MRSA and generally in β-lactam resistance. Experiments”
as §1

| Compound | MICs 48 hr (MRSA252 HA-MRSA) [µg/mL] | reduction in MIC on loss of pbp4 (MW2 Δpbp4; MW2 Δpbp4 versus MW2) [fold] | MICs (MW2 Δpbp4; Table 1, MW2 Δpbp4) [µg/mL] | MICs (MW2 Δpbp4; pbp4 mutant of MW2 with pbp2 expressed from inducible plasmid pEPSA5) [µg/mL] | MICs (MW2 Δpbp3/4) [µg/mL] | MICs (MW2 Δpbp3/4; listed as oxacillin) [µg/mL] | MICs (MW2 Δpbp4::pbp4) [µg/mL] | MICs (USA300 Δpbp4::pbp4) [µg/mL] | MICs (USA300 Δpbp4; Table 1, USA300 Δpbp4) [µg/mL] | reduction in MIC on loss of pbp4 (USA300 Δpbp4; USA300 Δpbp4 versus USA300) [fold] | MICs (USA300 Δpbp4; pbp4 mutant of USA300 with pbp2 expressed from inducible plasmid pEPSA5) [µg/mL] | MICs (MW2 Δpbp3) [µg/mL] | affinity for PBP4 (PBP4) | MIC [1] [mg/L] | MIC (MW2 ex Δpbp3) [mg/L] |
| --- | --- | --- | --- | --- | --- | --- | --- | --- | --- | --- | --- | --- | --- | --- | --- |
| Cc1onc(-c2ccccc2)c1C(=O)N[C@@H]1C(=O)N2[C@@H]1SC(C)(C)[C@@H]2C(=O)O [OX, oxacillin] | 256 | 16 | 4 | 4 | 4 | 1 | 64 | 64 | 4 | 16 | 4 | 64 |  |  |  |
| CO[C@@]1(NC(=O)Cc2cccs2)C(=O)N2C(C(=O)O)=C(COC(N)=O)CS[C@@H]21 [CX, cefoxitin] |  |  |  |  |  |  |  |  |  |  |  |  | high affinity | 16 (≈ 37.4 µM) | 32 (≈ 74.9 µM) |
